Tests used:
[1] = system: giant foxtail; assay: Test A preemergence; assay type: in vivo, Setaria faberii; conditions: for Foxtail, Giant plant response rating (0 to 100 scale): 125 g ai/ha; for Foxtail, Giant plant response rating: 500 g ai/ha, 0 to 100 scale where 0 is no effect and 100 is complete control
Procedure, shortened: (§1)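 Scoring: eye-based comparison with untreated controls, 0 for no effect through 100 for complete control, at about day 10. Treatments: directed soil spray preemergence; foliar spray postemergence on 2–10 cm plants at the one- to two-leaf stage. Medium: loam soil with sand.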

[2] = system: wheat; assay: Test A preemergence; assay type: in vivo, Triticum aestivum; conditions: for Wheat plant response rating (0 to 100 scale): 125 g ai/ha; for Wheat plant response rating: 500 g ai/ha, 0 to 100 scale where 0 is no effect and 100 is complete control
Procedure, shortened: as §1

[3] = system: corn; assay: Test A preemergence; assay type: in vivo, Zea mays; conditions: for Corn plant response rating (0 to 100 scale): 125 g ai/ha; for Corn plant response rating: 500 g ai/ha, 0 to 100 scale where 0 is no effect and 100 is complete control
Procedure, shortened: as §1

[4] = system: large (Lg) crabgrass; assay: Test A postemergence; assay type: in vivo, Digitaria sanguinalis; conditions: 0 to 100 scale where 0 is no effect and 100 is complete control; for Crabgrass, Large plant response rating: 125 g ai/ha; for Plant response rating, Crabgrass, Large: 500 g ai/ha
Procedure, shortened: as §1

[5] = system: giant foxtail; assay: Test A postemergence; assay type: in vivo, Setaria faberii; conditions: 0 to 100 scale where 0 is no effect and 100 is complete control; for Foxtail, Giant plant response rating: 125 g ai/ha; for Plant response rating, Foxtail, Giant: 500 g ai/ha
Procedure, shortened: as §1

[6] = system: pigweed; assay: Test A postemergence; assay type: in vivo, Amaranthus retroflexus; conditions: 0 to 100 scale where 0 is no effect and 100 is complete control; for Pigweed plant response rating: 125 g ai/ha; for Plant response rating, Pigweed: 500 g ai/ha
Procedure, shortened: as §1

[7] = system: rice; assay: Test B flooded paddy test; assay type: in vivo, Oryza sativa; conditions: Flood, 250 g ai/ha; 0 to 100 scale where 0 is no effect and 100 is complete control
Procedure, shortened: (§2)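 Evaluation is visual, against untreated controls, 13 to 15 days after treatment. Before treatment, plants reached the 2-leaf stage; pots were then flooded 3 cm deep, compound was added to the water, and that level was maintained. Ratings run 0 to 100, with 100 meaning complete control.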

[8] = system: sedge, umbrella; assay: Test B flooded paddy test; assay type: in vivo, Cyperus difformis; conditions: Flood, 250 g ai/ha; 0 to 100 scale where 0 is no effect and 100 is complete control
Procedure, shortened: as §2

[9] = system: barnyardgrass; assay: Test B flooded paddy test; assay type: in vivo, Echinochloa crus-galli; conditions: Flood, 250 g ai/ha; 0 to 100 scale where 0 is no effect and 100 is complete control
Procedure, shortened: as §2

[10] = system: Italian ryegrass; assay: Test C postemergence; assay type: in vivo, Lolium multiflorum; conditions: for Ryegrass, Italian plant response rating: 31 g ai/ha; for Ryegrass, Italian plant response rating / Plant response rating, Ryegrass, Italian: scale 0 to 100 (0 no effect, 100 complete control)
Procedure, shortened: (§3)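 Plants were kept under greenhouse conditions for 13–15 days following spray. Pre-emergent application went to soil (loam–sand), post-emergent to foliage at 1–4 leaves. Evaluation: visual, percent control against untreated checks.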

[11] = system: galium; assay: Test C postemergence; assay type: in vivo, Galium aparine; conditions: for Galium plant response rating: 31 g ai/ha; for Galium plant response rating / Plant response rating, Galium: scale 0 to 100 (0 no effect, 100 complete control)
Procedure, shortened: as §3

[12] = system: lambsquarters; assay: Test C postemergence; assay type: in vivo, Chenopodium album; conditions: for Lambsquarters plant response rating: 31 g ai/ha; for Lambsquarters plant response rating / Plant response rating, Lambsquarters: scale 0 to 100 (0 no effect, 100 complete control)
Procedure, shortened: as §3

[13] = system: soybean; assay: Test C postemergence; assay type: in vivo, Glycine max; conditions: for Soybean plant response rating: 31 g ai/ha; for Soybean plant response rating / Plant response rating, Soybean: scale 0 to 100 (0 no effect, 100 complete control)
Procedure, shortened: as §3

[14] = system: oilseed rape; assay: Test C postemergence; assay type: in vivo, Brassica napus; conditions: for Oilseed Rape plant response rating: 31 g ai/ha; for Oilseed Rape plant response rating / Plant response rating, Oilseed Rape: scale 0 to 100 (0 no effect, 100 complete control)
Procedure, shortened: as §3

[15] = system: waterhemp; assay: Test C postemergence; assay type: in vivo, Amaranthus rudis; conditions: for Waterhemp plant response rating: 31 g ai/ha; for Waterhemp plant response rating / Plant response rating, Waterhemp: scale 0 to 100 (0 no effect, 100 complete control)
Procedure, shortened: as §3

[16] = system: chickweed; assay: Test C postemergence; assay type: in vivo, Stellaria media; conditions: for Chickweed plant response rating: 31 g ai/ha; for Chickweed plant response rating / Plant response rating, Chickweed: scale 0 to 100 (0 no effect, 100 complete control)
Procedure, shortened: as §3

[17] = postemergence, visual rating, 13 to 15 days
[18] = 125 g ai/ha, postemergence, visual rating
[19] = Postemergence, 62 g ai/ha, 13 to 15 days
[20] = 16 g ai/ha, postemergence, 0 is no effect, 100 is complete control

## N#Cc1cnn(-c2c(C#N)cccc2Oc2ncc(Cl)cn2)c1 [Compound 200]
[1]
  Foxtail, Giant plant response rating (0 to 100 scale): 100
  Foxtail, Giant plant response rating: 100
[2]
  Wheat plant response rating (0 to 100 scale): 30
  Wheat plant response rating: 50
[3]
  Corn plant response rating (0 to 100 scale): 40
  Corn plant response rating: 50
[4]
  Crabgrass, Large plant response rating: 90
  Plant response rating, Crabgrass, Large: 90
[5]
  Foxtail, Giant plant response rating: 90
  Plant response rating, Foxtail, Giant: 90
[6]
  Pigweed plant response rating: 100
  Plant response rating, Pigweed: 100
[7]
  Plant response rating, Rice: 20
[8]
  Plant response rating, Sedge, Umbrella: 85
[9]
  Plant response rating, Barnyardgrass: 20
[10]; [17]
  Ryegrass, Italian plant response rating: 5
[10]; [18]
  Plant response rating, Ryegrass, Italian: 5
[10]; 250 g ai/ha, postemergence
  Plant response rating (0 to 100), Ryegrass, Italian: 5
[10]; [19]
  Plant response rating, Ryegrass, Italian: 10
[11]; [17]
  Galium plant response rating: 60
[11]; [18]
  Plant response rating, Galium: 85
[11]; 250 g ai/ha, postemergence
  Plant response rating (0 to 100), Galium: 95
[11]; [19]
  Plant response rating, Galium: 65
[12]; [17]
  Lambsquarters plant response rating: 80
[12]; [18]
  Plant response rating, Lambsquarters: 85
[12]; 250 g ai/ha, postemergence
  Plant response rating (0 to 100), Lambsquarters: 95
[12]; [19]
  Plant response rating, Lambsquarters: 80
[13]; [17]
  Soybean plant response rating: 90
[13]; [18]
  Plant response rating, Soybean: 95
[13]; 250 g ai/ha, postemergence
  Plant response rating (0 to 100), Soybean: 90
[13]; [19]
  Plant response rating, Soybean: 95
[14]; [17]
  Oilseed Rape plant response rating: 55
[14]; [18]
  Plant response rating, Oilseed Rape: 50
[14]; 250 g ai/ha, postemergence
  Plant response rating (0 to 100), Oilseed Rape: 70
[14]; [19]
  Plant response rating, Oilseed Rape: 55
[15]; [17]
  Waterhemp plant response rating: 70
[15]; [18]
  Plant response rating, Waterhemp: 90
[15]; 250 g ai/ha, postemergence
  Plant response rating (0 to 100), Waterhemp: 95
[15]; [19]
  Plant response rating, Waterhemp: 98
[16]; [17]
  Chickweed plant response rating: 55
[16]; [18]
  Plant response rating, Chickweed: 95
[16]; 250 g ai/ha, postemergence
  Plant response rating (0 to 100), Chickweed: 98
[16]; [19]
  Plant response rating, Chickweed: 75

## Clc1cnc(Oc2cccc(Cl)c2-n2cc(Cl)cn2)nc1 [Compound 220]
[1]
  Foxtail, Giant plant response rating (0 to 100 scale): 100
  Foxtail, Giant plant response rating: 100
[2]
  Wheat plant response rating (0 to 100 scale): 0
  Wheat plant response rating: 20
[3]
  Corn plant response rating (0 to 100 scale): 0
  Corn plant response rating: 10
[4]
  Crabgrass, Large plant response rating: 100
  Plant response rating, Crabgrass, Large: 100
[5]
  Foxtail, Giant plant response rating: 80
  Plant response rating, Foxtail, Giant: 90
[6]
  Pigweed plant response rating: 100
  Plant response rating, Pigweed: 100
[7]
  Plant response rating, Rice: 0
[8]
  Plant response rating, Sedge, Umbrella: 90
[9]
  Plant response rating, Barnyardgrass: 0
[10]; [20]
  Plant response rating (0 to 100), Ryegrass, Italian: 0
[10]; [17]
  Ryegrass, Italian plant response rating: 0
[10]; [18]
  Plant response rating, Ryegrass, Italian: 10
[10]; [19]
  Plant response rating, Ryegrass, Italian: 5
[11]; [20]
  Plant response rating (0 to 100), Galium: 50
[11]; [17]
  Galium plant response rating: 70
[11]; [18]
  Plant response rating, Galium: 95
[11]; [19]
  Plant response rating, Galium: 80
[12]; [20]
  Plant response rating (0 to 100), Lambsquarters: 15
[12]; [17]
  Lambsquarters plant response rating: 50
[12]; [18]
  Plant response rating, Lambsquarters: 75
[12]; [19]
  Plant response rating, Lambsquarters: 55
[13]; [20]
  Plant response rating (0 to 100), Soybean: 40
[13]; [17]
  Soybean plant response rating: 65
[13]; [18]
  Plant response rating, Soybean: 95
[13]; [19]
  Plant response rating, Soybean: 60
[14]; [20]
  Plant response rating (0 to 100), Oilseed Rape: 50
[14]; [17]
  Oilseed Rape plant response rating: 65
[14]; [18]
  Plant response rating, Oilseed Rape: 90
[14]; [19]
  Plant response rating, Oilseed Rape: 85
[15]; [20]
  Plant response rating (0 to 100), Waterhemp: 65
[15]; [17]
  Waterhemp plant response rating: 70
[15]; [18]
  Plant response rating, Waterhemp: 85
[15]; [19]
  Plant response rating, Waterhemp: 75
[16]; [20]
  Plant response rating (0 to 100), Chickweed: 65
[16]; [17]
  Chickweed plant response rating: 70
[16]; [18]
  Plant response rating, Chickweed: 80
[16]; [19]
  Plant response rating, Chickweed: 80

Source: patent US9695155B2, “Herbicidal substituted pyrimidinyloxy benzene compounds” (E. I. DU PONT DE NEMOURS AND COMPANY, priority 2013, dated 2017)
